From BindingDB's records for doi:10.1016/s0960-894x(99)00301-7 (Nankai University, 1999)

Biological target: T1, Acetolactate synthase, chloroplastic (Arabidopsis thaliana, UniProt P17597)
T1 sequence (P17597 whole entry): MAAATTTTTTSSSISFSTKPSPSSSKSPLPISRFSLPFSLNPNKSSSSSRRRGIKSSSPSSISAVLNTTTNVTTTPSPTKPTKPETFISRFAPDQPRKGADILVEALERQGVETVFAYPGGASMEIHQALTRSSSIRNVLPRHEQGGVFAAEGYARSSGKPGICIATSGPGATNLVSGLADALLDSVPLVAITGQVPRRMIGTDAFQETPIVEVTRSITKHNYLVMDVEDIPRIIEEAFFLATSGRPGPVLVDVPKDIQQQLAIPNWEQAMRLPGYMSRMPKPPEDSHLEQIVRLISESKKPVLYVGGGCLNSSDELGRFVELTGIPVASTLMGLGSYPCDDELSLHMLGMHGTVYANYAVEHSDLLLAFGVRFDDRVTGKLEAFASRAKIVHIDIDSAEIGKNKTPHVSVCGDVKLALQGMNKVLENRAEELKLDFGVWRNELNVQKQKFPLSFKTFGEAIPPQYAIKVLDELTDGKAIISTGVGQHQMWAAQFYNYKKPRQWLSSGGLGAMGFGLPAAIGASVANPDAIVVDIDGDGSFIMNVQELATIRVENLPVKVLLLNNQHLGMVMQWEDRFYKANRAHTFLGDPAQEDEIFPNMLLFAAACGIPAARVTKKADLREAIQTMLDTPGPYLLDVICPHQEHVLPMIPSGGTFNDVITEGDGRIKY
Assay: ChEBML_27494
Description: Inhibitory activity against Acetolactate synthase (ALS) enzyme by using the rape-root growth method

Row | IC50 [µM] | Structure (SMILES)
1 | > 269 | O=C(OCn1ccc(=O)[nH]c1=O)c1ccc(I)cc1
2 | 212 | O=C(OCn1ccc(=O)[nH]c1=O)c1ccc(F)cc1
3 | 169 | O=C(OCn1ccc(=O)[nH]c1=O)c1ccc(Br)cc1
4 | > 362 | COc1ccccc1C(=O)OCn1ccc(=O)[nH]c1=O
5 | 182 | O=C(OCn1ccc(=O)[nH]c1=O)c1ccc(Cl)cc1
6 | > 261 | O=C(OCn1ccc(=O)[nH]c1=O)c1c(Cl)cc(C(F)(F)F)cc1Cl
7 | 208 | O=C(OCn1ccc(=O)[nH]c1=O)c1ccccc1
8 | > 344 | O=C(OCn1ccc(=O)[nH]c1=O)c1ccc([N+](=O)[O-])cc1
9 | 62 | Cc1cccc(C(=O)OCn2ccc(=O)[nH]c2=O)c1
10 | > 362 | COc1ccc(C(=O)OCn2ccc(=O)[nH]c2=O)cc1
11 | > 309 | Cc1cnc(NS(=O)(=O)c2cc(Cl)ccc2Cl)s1 [2,5-Dichloro-N-(5-methyl-thiazol-2-yl)-benzenesulfonamide]
12 | 152 | Cc1ccc(NS(=O)(=O)c2ccc(F)cc2)nc1 [4-Fluoro-N-(5-methyl-pyridin-2-yl)-benzenesulfonamide]
13 | 111 | COc1cc(Cl)nc(NS(=O)(=O)c2ccc(F)cc2)n1 [N-(4-Chloro-6-methoxy-pyrimidin-2-yl)-4-fluoro-benzenesulfonamide]
14 | 287 | Cc1ccnc(NS(=O)(=O)c2ccccc2[N+](=O)[O-])n1 [N-(4-Methyl-pyrimidin-2-yl)-2-nitro-benzenesulfonamide]
